According to ChEMBL document CHEMBL5465560, “Selectivity Literature for EUbOPEN Chemogenomic Library” (2024):

Experiments:
[1] = target: T1, Inhibitor of nuclear factor kappa-B kinase subunit beta (Homo sapiens) (UniProt O14920); experiment: Selectivity interaction (KinomeScan (DiscoverX)) EUB0000595a IKBKB; conditions: at 10 µM
T1 sequence (whole entry): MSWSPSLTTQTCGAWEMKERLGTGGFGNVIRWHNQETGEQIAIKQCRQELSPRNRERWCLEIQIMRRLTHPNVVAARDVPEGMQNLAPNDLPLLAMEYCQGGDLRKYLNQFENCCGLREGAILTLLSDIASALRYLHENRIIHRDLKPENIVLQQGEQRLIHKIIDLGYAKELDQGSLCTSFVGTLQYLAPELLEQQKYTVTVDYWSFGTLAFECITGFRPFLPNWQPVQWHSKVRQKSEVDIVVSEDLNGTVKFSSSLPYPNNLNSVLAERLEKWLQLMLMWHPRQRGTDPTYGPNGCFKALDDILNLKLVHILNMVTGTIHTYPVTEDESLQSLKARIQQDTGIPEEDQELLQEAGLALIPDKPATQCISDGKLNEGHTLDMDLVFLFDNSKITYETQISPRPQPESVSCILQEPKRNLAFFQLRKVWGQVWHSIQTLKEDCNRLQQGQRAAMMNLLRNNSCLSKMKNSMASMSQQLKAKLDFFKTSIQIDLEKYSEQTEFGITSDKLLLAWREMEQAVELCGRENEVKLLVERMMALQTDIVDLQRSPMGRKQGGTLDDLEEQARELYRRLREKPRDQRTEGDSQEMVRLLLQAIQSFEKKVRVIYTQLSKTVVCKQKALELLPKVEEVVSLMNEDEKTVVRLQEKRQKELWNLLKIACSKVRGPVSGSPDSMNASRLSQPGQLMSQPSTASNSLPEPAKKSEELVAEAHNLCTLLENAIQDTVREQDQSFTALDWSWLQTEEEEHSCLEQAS

[2] = target: Tyrosine-protein kinase SYK (Homo sapiens, UniProt P43405); experiment: Selectivity interaction (KinomeScan (DiscoverX)) EUB0000595a SYK; conditions: at 10 µM
[3] = target: T2, Ephrin type-B receptor 2 (Homo sapiens) (UniProt P29323); experiment: Selectivity interaction (KinomeScan (DiscoverX)) EUB0000045b EPHB2
T2 sequence (whole entry): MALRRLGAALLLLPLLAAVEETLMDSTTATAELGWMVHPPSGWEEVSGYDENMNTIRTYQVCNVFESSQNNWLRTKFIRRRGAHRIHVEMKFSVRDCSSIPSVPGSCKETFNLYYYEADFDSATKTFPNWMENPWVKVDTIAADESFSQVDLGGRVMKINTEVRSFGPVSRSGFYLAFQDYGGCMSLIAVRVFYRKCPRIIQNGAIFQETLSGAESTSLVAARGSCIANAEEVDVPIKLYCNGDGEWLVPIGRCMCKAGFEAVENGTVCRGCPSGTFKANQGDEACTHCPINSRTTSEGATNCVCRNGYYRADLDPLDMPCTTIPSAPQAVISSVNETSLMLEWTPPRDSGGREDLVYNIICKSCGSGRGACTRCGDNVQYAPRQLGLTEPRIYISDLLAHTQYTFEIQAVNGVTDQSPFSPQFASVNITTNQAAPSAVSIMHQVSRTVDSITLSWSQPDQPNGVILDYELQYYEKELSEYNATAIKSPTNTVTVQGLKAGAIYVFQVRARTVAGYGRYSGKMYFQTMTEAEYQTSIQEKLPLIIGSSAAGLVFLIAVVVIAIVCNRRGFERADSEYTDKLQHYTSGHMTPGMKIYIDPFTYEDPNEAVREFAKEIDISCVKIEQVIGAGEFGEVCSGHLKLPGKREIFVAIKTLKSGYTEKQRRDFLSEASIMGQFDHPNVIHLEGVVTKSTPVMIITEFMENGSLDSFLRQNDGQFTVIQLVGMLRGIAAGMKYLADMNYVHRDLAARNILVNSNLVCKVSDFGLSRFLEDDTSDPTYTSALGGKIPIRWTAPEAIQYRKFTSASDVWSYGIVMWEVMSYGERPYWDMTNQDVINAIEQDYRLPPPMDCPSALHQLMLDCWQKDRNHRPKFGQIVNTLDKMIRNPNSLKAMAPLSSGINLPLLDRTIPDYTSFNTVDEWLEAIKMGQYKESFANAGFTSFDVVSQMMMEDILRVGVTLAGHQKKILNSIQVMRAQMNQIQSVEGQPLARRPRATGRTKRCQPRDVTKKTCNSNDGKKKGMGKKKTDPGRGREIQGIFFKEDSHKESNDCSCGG

Structure (SMILES)	% of control [1] [%]	% of control [2] [%]	% of control ([3]; at 1 µM) [%]	% of control ([3]; at 10 µM) [%]
COCC(=O)NC/C=C/c1ccc2ncnc(Nc3ccc(Oc4ccc(C)nc4)c(C)c3)c2c1 [CP-724714]	100	100	–	–
C=CC(=O)Nc1cc(-n2c(=O)ccc3cnc4ccc(-c5ccc(NS(C)(=O)=O)cc5)cc4c32)ccc1C	–	–	80	95
